Paper PMC12730352 (Brain Sciences, 2025)

Legend:
[1] = tested on: p75, MPZ, NRG1, and Erβ; experiment: Neuroprotection biomarker panel by ELISA in 3D EngNT (all markers together); assay type: cell-based, rat; details: for all markers (p75, MPZ, NRG1, ERβ); GGF 200 ng/mL pretreatment
Procedure: (§1) The MPZ content in 3D EngNT cell lysates was determined using the Rat ELISA kit (MyBiosource, San Diego, CA, USA). A standard curve with a range of 0.06 to 18 ng/mL was used to express the concentration as a percentage of ng/mL.
3D EngNT cell lysates were subjected to the Rat NGFR ELISA kit (MyBiosource, San Diego, CA, USA) in accordance with the product specifications. Quantification was obtained through a standard curve ranging from 0.312 to 20 ng/mL.
ERβ concentrations in 3D EngNT lysates were measured using the Rat ERβ ELISA Kit (Cloud-Clone, Houston, TX, USA). The result was given as % ng/mL against a 0.312–20 ng/mL standard curve.

[2] = tested on: TNFα; experiment: TNFα ELISA in 3D EngNT supernatants; assay type: cell-based, rat; details: GGF 200 ng/mL pretreatment, 24 h
Description: TNF-α levels in 3D EngNT supernatants were quantified using the TNF-α ELISA Kit (Merck Life Science, Rome, Italy). The results were obtained using a calibration curve (range: 24.58–6000 pg/mL).

[3] = tested on: 3D EngNT (RSC96/PC12 co-culture); experiment: ROS production (cytochrome C reduction) in 3D EngNT; assay type: cell-based, rat; details: GGF 200 ng/mL pretreatment, 24 h with intestinal metabolites
Procedure: In the EngNT in vitro model, superoxide anion release was assessed by measuring cytochrome C reduction. Superoxide dismutase and cytochrome C (from Merck Life Science, Rome, Italy) were incubated for 30 min with both treated and untreated cells. Absorbance at 550 nm was recorded using a spectrometer (Infinite 200 Pro MPlex, Tecan, Männedorf, Switzerland). The results, averaged over five tests performed in triplicate, are expressed as the mean ± standard deviation (%) of lower cytochrome C nanomoles per microgram of protein relative to the control (0 line).

[4] = tested on: NaV 1.7, NaV 1.8, and GABA; experiment: Nociception-related biomarker panel by ELISA in 3D EngNT (all markers together); assay type: cell-based, rat; details: GGF 200 ng/mL pretreatment, 24 h
Procedure: Quantification was obtained through a standard curve ranging from 6 to 400 pg/mL. NaV 1.7 was quantified on 3[…] lysates using the SCN9A/Nav1.7 ELISA Kit (LifeSpan BioSciences, Lynnwood, WA, USA). OD was correlated with the standards' concentration (0.312 to 20 ng/mL) using a standard curve. On 3[…] lysates, the Mouse Sodium Channel Protein Type 10 Subunit Alpha (SCN10A) ELISA Kit (MyBiosource, San Diego, CA, USA) quantified NaV 1.8 [64]. Comparing colour intensity (OD) to standard concentration produced a standard curve.

[5] = tested on: Caco-2 cells
[6] = tested on: MPZ; experiment: MPZ ELISA in 3D EngNT lysates; assay type: cell-based, rat; details: GGF 200 ng/mL pretreatment, 24 h
Procedure: as §1

[7] = tested on: ERβ; experiment: ERβ ELISA in 3D EngNT lysates; assay type: cell-based, rat; details: GGF 200 ng/mL pretreatment, 24 h
Procedure: ERβ concentrations in 3[…] lysates were measured using the Rat ERβ ELISA Kit (Cloud-Clone, Houston, TX, USA).

[8] = tested on: NRG1; details: 3D EngNT, GGF 200 ng/mL pretreatment, 24 h
Procedure: Starting on day 14 of maturation, GGF at 200 ng/mL was added to the EngNT 3D model to damage peripheral neurons and remove substantial myelin [51]. 3D EngNT was then treated for 24 h with the intestinal metabolite of each previously collected sample.
All ELISA analyses were performed according to the manufacturers’ instructions using specific commercial kits for each biomarker. Absorbance was measured at 450 nm using a microplate reader (Infinite 200 ProMPlex, Tecan, Männedorf, Switzerland). For each assay, a standard calibration curve (range depending on the specific kit) was used to determine analyte concentrations.
NRG1 levels in 3D EngNT supernatants were measured using the FineTest NRG1 Rat ELISA Kit (Wuhan, China) [62].

[9] = tested on: 3D EngNT (RSC96/PC12 co-culture); experiment: MTT cell viability in 3D EngNT under demyelination (GGF 200 ng/mL); assay type: cell-based, rat; details: GGF 200 ng/mL pretreatment, 24 h with intestinal metabolites
Procedure: RSC96, a rat-derived Schwann cell line (purchased from ATCC), was cultured in Adv DMEM (Thermo Fisher Scientific, Rodano, MI, Italy) containing 1% penicillin-streptomycin, 2 mM L-glutamine, and 5% FBS [46]. The culture was maintained at 37 °C with 5% CO2 and 95% humidity in a 37 °C incubator. Experiments utilised RSC96 cells from passages 10 to 15, which were sub-cultured two or three times weekly.
The ATCC rat neural PC12 cell line was cultured in Advanced RPMI-1640 medium (Thermo Fisher Scientific, Rodano, MI, Italy). This medium contained 5% FBS, 5% horse serum (HS; Merck Life Science, Rome, Italy), and 2 mM glutamine. Cultures were maintained at 37 °C in a 5% CO2 environment with 95% humidity, ensuring they remained below confluency. Assays utilised cells between passages 3 and 13 [47]. PC12 cells are commonly used for in vitro neuroprotective chemical screening, being a suitable neuronal cell line. […]
A standard method described in the literature was employed to assess cell survival after each stimulation using the MTT-based In Vitro Toxicology Assay Kit (Merck Life Science, Rome, Italy). All solubilised materials, whether treated or untreated, were measured at 570 nm with a 690 nm correction using a spectrometer (Infinite 200 Pro MPlex, Tecan, Männedorf, Switzerland). […]

[10] = tested on: p75; experiment: p75 (NGFR) ELISA in 3D EngNT lysates; assay type: cell-based, rat; details: GGF 200 ng/mL pretreatment, 24 h
Procedure: 3[…] lysates were subjected to the Rat NGFR ELISA kit (MyBiosource, San Diego, CA, USA) in accordance with the product specifications. Quantification was obtained through a standard curve ranging from 0.312 to 20 ng/mL.

Row | Compound | reduction of marker levels compared to the control condition [1] | TNFα production (result in words) [2] | ROS production, antioxidant response (result in words) [3] | nociception-related markers NaV 1.7, NaV 1.8, GABA (result in words) [4] | permeability compared to the control ([5]; at 4 h, fluorescent tracer, normalised to control) [%] | permeability (result in words) ([5]; individual agents, 1–6 h) | MPZ levels (result in words) [6] | Erβ levels (result in words) [7] | NRG1 levels (result in words) [8] | cell viability (result in words) [9] | p75 signal (result in words) [10]
1 | glial growth factor 2 [GGF] | about 10% |  |  |  |  |  |  |  |  |  | 
2 | CC(=O)N[C@@H](CS)C(=O)O [NAC, N-Acetylcysteine] |  | effect slightly inferior to ALA | greatest effect compared to ALA and vitamin B6 | neuroprotective and hypothetically anti-nociceptive effects | 51 | highest permeability of all agents | stronger, more noticeable impact than ALA and vitamin B6 | comparable to ALA and better than vitamin B6 |  |  | 
3 | N[C@@H](CCC(=O)N[C@@H](CS)C(=O)NCC(=O)O)C(=O)O [GSH, Glutathione] |  |  | more pronounced reduction | neuroprotective and hypothetically anti-nociceptive effects |  |  | stronger, more noticeable impact than ALA and vitamin B6 | comparable to ALA and better than vitamin B6 | more biological effects than ALA and vitamin B6 alone | almost as strong as ALA and vitamin B6 | comparable to ALA
4 | O=c1ccn([C@@H]2O[C@H](COP(=O)(O)O)[C@@H](O)[C@H]2O)c(=O)[nH]1 [UMP, Uridine monophosphate] |  | most pronounced reduction, superior to ALA |  | neuroprotective and hypothetically anti-nociceptive effects |  |  |  |  |  | effects even more similar | comparable to ALA
